From US4160097A, “1-(2-Phenylureylene)imidazoles” (Westwind Pharmaceuticals, Inc., priority 1977, dated 1979)
In brackets after ≈: the same amount, converted by molar mass. Like-named read-outs stand apart in the source and are kept apart here.

What was measured:
[1] = test system: Trichophyton mentagrophytes; assay: Antifungal activity, agar dilution method; type: cell-based, Trichophyton mentagrophytes (ATCC No. 8757 and 9129); conditions: T. mentagrophytes, read-out: Parts Per Million Inhibitions of T. mentagrophytes
Experimental: (§1) various compounds of this invention display antifungal and anti-yeast activity.
(§2) In Table IX below are listed the antifungal activity of a number of compounds encompassed in the present invention. These were determined by the agar dilution method as described in Chapters 2 and 3 of Methods in Microbiology, Vol. 7B, edited by J. R. Norris and D. W. Ribbons, Academic Press, New York, 1972.

Trichophyton rubrum = assay: Antifungal activity, agar dilution method; type: cell-based, Trichophyton rubrum (ATCC No. 10218 and 14001); conditions: T. rubrum, read-out: Parts Per Million Inhibitions of T. rubrum
Experimental: as §1, §2

[2] = test system: cell-mediated immune response to the antigen, Mycobacterium tuberculosis H37Ra; assay: delayed hypersensitivity test; type: in vivo, mouse; conditions: Mus musculus, sc, read-out: D.H.S. (ED60)
Experimental: The immunosuppressant activities of the compounds of this invention were determined via the hemolysin test in mice and by the delayed hypersensitivity test. The hemolysin test used is that described in Methods in Immunology, edited by D. H. Campbell et al, W. A. Benjamin, New York 1963 pages 172-175, and measures humeral or antibody response. The delayed hypersensitivity test measures the effect of a test compound on the ability of a subject mouse to mount a cell-mediated immune response to the antigen, Mycobacterium tuberculosis H37Ra. The mouse is sensitized to the antigen by subcutaneous administration in the base of the tail. The development of the delayed hypersensitivity response may be measured at any time beginning six days after sensitization but is usually done on the ninth day as follows: The right hind paw is injected with purified protein derivative (tuberculin) while the left hind paw (control) receives physiological saline. Both paw volumes are measured after twenty-four hours and significant increase in the volume of the right hand paw is taken as a measure of an effective delayed hypersensitivity response. All compounds were administered by the subcutaneous route.
The D.H.S. (ED60) mg./kg. s.c. value appearing in column 3 is an expression of the effectiveness of the drug in reducing the edema that accompanies the cell-mediated immune response. It is a measure of the number of milligrams per kilogram of body weight of the drug administered subcutaneously which is required to reduce the edema of the cell-mediated immune response by 60% when compared to the control.

Candida tropicalis = assay: Antifungal activity, agar dilution method; type: cell-based; conditions: C. tropicalis, read-out: Parts Per Million Inhibitions of C. tropicalis
Experimental: as §1, §2

[3] = test system: humeral or antibody response; assay: hemolysin test in mice; type: in vivo; conditions: Mus musculus, sc, dose reducing antibody activity by 50% vs control, read-out: HL(ED50)
Trichophyton ajelloi = assay: Antifungal activity, agar dilution method; type: cell-based; conditions: Arthroderma uncinatum, T. ajelloi, read-out: Parts Per Million Inhibitions of T. ajelloi
Experimental: as §1, §2

[4] = test system: carrageenan rat paw edema; assay: Rat Paw Edema Assay, Oral Dosing; type: in vivo; conditions: 4 h, four hours after drug, read-out: % Difference from Control; for change in vivo at 100 mg/kg: 100 mg/kg oral; for change in vivo at 400 mg/kg: 400 mg/kg oral
Experimental: (§3) The anti-inflammatory activity of representative compounds of this invention was determined by the rat paw edema assay both by local administration (Table XI below) and by oral dosing (Table XII below). For the oral dosing, the procedure of C. A. Winter, E. A. Risley and G. W. Nuss, Proc. Soc. Exp. Biol. Med. III, 544 (1962) was employed with measurement taken four hours after the drug was administered. The local administration tests were carried out similarly except the irritant (carrageenan) and the test compound were injected simultaneously at time zero.
(§4) Tables XI and XII report the anti-inflammatory activity of the compounds tested as % difference in the edema or swelling as compared with the control. These Tables also give the response in many instances of more than one dose level of the same drug.

[5] = test system: carrageenan rat paw edema; assay: Rat Paw Edema Assay, Local Administration; type: in vivo; conditions: read-out: % Difference from Control; for change in vivo at 100 mg/kg: local administration
Experimental: as §3, §4

[6] = mice, dose reducing edema of cell-mediated immune response by 60% vs control

SMILES | MIC [1] | MIC (Trichophyton rubrum) | ED60 [2, 6] | ED50 [3] | MIC (Trichophyton ajelloi) | change in vivo at 100 mg/kg [4] | also measured
C=CCCCCCCCCC(=O)Nc1ccccc1-n1ccnc1 [Compound 16] | 4 µg/mL (≈ 12.3 µM) | 2 µg/mL (≈ 6.15 µM) | – | – | – | – | –
Nc1ccc(-c2nc3ccccc3n3ccnc23)cc1 [Compound 153] | – | – | 5.7 mg/kg | 1.2 mg/kg | – | – | MIC (Candida tropicalis): 100 µg/mL (≈ 384 µM)
c1ccc2c(-c3nc4ccccc4n4ccnc34)cccc2c1 [Compound 160] | 100 µg/mL (≈ 339 µM) | 100 µg/mL (≈ 339 µM) | – | – | 100 µg/mL (≈ 339 µM) | – | –
CCCCNc1nc2ccccc2n2ccnc12 [Compound 168] | 100 µg/mL (≈ 416 µM) | 100 µg/mL (≈ 416 µM) | – | – | 100 µg/mL (≈ 416 µM) | – | –
c1ccc2c(c1)nc(NC1CCCCC1)c1nccn12 [Compound 167] | 100 µg/mL (≈ 375 µM) | 100 µg/mL (≈ 375 µM) | – | – | 100 µg/mL (≈ 375 µM) | – | –
CCCCCCCCC(=O)Nc1ccccc1-n1ccnc1 [Compound 9] | 16 µg/mL (≈ 53.4 µM) | 16 µg/mL (≈ 53.4 µM) | – | – | – | – | –
Cc1ccccc1C(=O)Nc1ccccc1-n1ccnc1 [Compound 35] | 16 µg/mL (≈ 57.7 µM) | – | – | – | 100 µg/mL (≈ 361 µM) | -50% | –
CCCCCCCC(=O)Nc1ccccc1-n1ccnc1 [Compound 8] | 8 µg/mL (≈ 28 µM) | 8 µg/mL (≈ 28 µM) | – | – | – | -22% | change in vivo at 400 mg/kg [4]: -13%
COc1ccc(-c2nc3ccccc3n3ccnc23)cc1 [Compound 138] | 100 µg/mL (≈ 363 µM) | – | 27 mg/kg | 0.72 mg/kg | 100 µg/mL (≈ 363 µM) | – | –
CC(C)(C)c1ccc(C(=O)Nc2ccccc2-n2ccnc2)cc1 [Compound 39] | 100 µg/mL (≈ 313 µM) | – | – | – | 100 µg/mL (≈ 313 µM) | -50% | –
Clc1ccc(-c2nc3ccccc3n3ccnc23)cc1 [Compound 140] | – | < 0.5 µg/mL | 1.15 mg/kg | 0.26 mg/kg | – | -35% | change in vivo at 100 mg/kg [5]: -78%
CCCCCCC(=O)Nc1ccccc1-n1ccnc1 [Compound 7] | – | – | – | – | – | -52% | change in vivo at 100 mg/kg [5]: -22%
CCCNc1nc2ccccc2n2ccnc12 [Compound 169] | 100 µg/mL (≈ 442 µM) | 100 µg/mL (≈ 442 µM) | – | 46 mg/kg | 100 µg/mL (≈ 442 µM) | – | ED60 [2]: > 50 mg/kg
COc1ccccc1Nc1nc2ccccc2n2ccnc12 [Compound 184] | 100 µg/mL (≈ 344 µM) | 100 µg/mL (≈ 344 µM) | – | – | 100 µg/mL (≈ 344 µM) | – | –
O=[N+]([O-])c1ccc(Nc2nc3ccccc3n3ccnc23)cc1 [Compound 189] | – | 100 µg/mL (≈ 328 µM) | – | – | 100 µg/mL (≈ 328 µM) | – | –
CCCCCCCc1nc2ccccc2n2ccnc12 [Compound 116] | 16 µg/mL (≈ 59.8 µM) | 16 µg/mL (≈ 59.8 µM) | 56 mg/kg | > 50 mg/kg | – | 104% | change in vivo at 400 mg/kg [4]: -18%
CCCCCCCCCc1nc2ccccc2n2ccnc12 [Compound 118] | 256 µg/mL (≈ 867 µM) | 4 µg/mL (≈ 13.5 µM) | 43 mg/kg | > 50 mg/kg | – | – | –
c1ccc(-c2ccc(-c3nc4ccccc4n4ccnc34)cc2)cc1 [Compound 135] | 100 µg/mL (≈ 311 µM) | – | 0.22 mg/kg | 0.033 mg/kg | 100 µg/mL (≈ 311 µM) | – | –
O=C(C=Cc1ccccc1)Nc1ccccc1-n1ccnc1 [Compound 20] | 100 µg/mL (≈ 346 µM) | – | – | – | 100 µg/mL (≈ 346 µM) | -59% | –
O=[N+]([O-])c1ccc(-c2nc3ccccc3n3ccnc23)cc1 [Compound 151] | – | 1 µg/mL (≈ 3.44 µM) | 1.52 mg/kg | 0.3 mg/kg | – | – | –
O=C(Nc1ccccc1-n1ccnc1)c1ccc2ccccc2c1 [Compound 62] | 100 µg/mL (≈ 319 µM) | 100 µg/mL (≈ 319 µM) | – | – | 100 µg/mL (≈ 319 µM) | – | –
O=C(O)c1ccccc1-c1nc2ccccc2n2ccnc12 [Compound 148] | – | – | – | – | – | -52% | change in vivo at 0.001 mg ([5]; 1 μg, injected directly into paw): -32.6%; change in vivo at 0.01 mg ([5]; 10 μg, injected directly into paw): -53.5%; change in vivo at 0.1 mg ([5]; 100 μg, injected directly into paw): -14.3%; change in vivo at 100 mg/kg [5]: -39%
O=C(Nc1ccccc1-n1ccnc1)c1ccc(Cl)cc1 [Compound 51] | – | – | – | – | – | -57% | change in vivo at 100 mg/kg [5]: -57%
